According to US11730770B2, “Methods for making and using sinoatrial node-like pacemaker cardiomyocytes and ventricular-like cardiomyocytes” (UNIVERSITY HEALTH NETWORK, priority 2015, dated 2023):

What was measured:
Format in all cases: cell-based, human
[1] = system: pacemaker funny current (If); assay: Patch clamp, pacemaker funny current density; settings: 2 mM Cesium (Cs+) vs Tyrode's solution
Procedure: FIG. 9. A, Current-voltage relationship for pacemaker funny current density (If) in SANLCM and VLCM. Inset: voltage protocol, from a holding potential of −40 mV currents were elicited by 3 s voltage steps of −10 mV down to −120 mV. Current densities were measured by subtraction of the instantaneous current (t=0) from the current at the end of the 3 sec voltage step. B,C Original pacemaker funny current traces at different membrane potentials in Tyrode's solution (B) and blocked by the application of 2 mM Cesium (Cs^+) (C). Inset: voltage protocol, from a holding potential of −40 mV currents were elicited by 3 s voltage steps of −10 mV down to −120 mV. […] Current densities were measured as peak inward currents. […]
Action potentials and membrane currents were measured with standard current- and voltage-clamp techniques using axopatch amplifier. […] Spontaneous action potentials, funny current (If) and inward rectifier potassium currents ([…]) were recorded at 37° C. using the perforated patch method (nystatin)^14 with the following bath solution (mM): NaCl 124. […] Sodium currents (IN) were recorded at 25° C. using the whole cell ruptured patch method in calcium free bath solution containing low Na^+ to reduce current amplitude for better voltage control (mM): NaCl 30, TEA-Cl 115, CaCb20.01, MgCl2 1, and glucose 5, Hepes 10 (pH 7.4, adjusted with NaOH). […]

[2] = system: HES-2 embryonic stem cell line; assay: Flow cytometry of day 20 HES2 cultures, intracellular NKX2-5 and cTNT staining
Procedure: For the generation of SANLCM cultures free of NKX2-5′ cardiomyocytes mesoderm was induced with the 3B/2A condition (3 ng/ml BMP4, 2 ng/ml ACTA) at day 1 of differentiation. […]
For the dissociation of day 3-day 12 EBs TrypLE was used. Day 12-30 EBs were incubated in HANKs buffer containing 1 mg/ml Collagenes type 2 (Worthington) with gentle shaking over night at room temperature, prior to TypLE dissociation. Cells were stained at a concentration of 5×10^6 cells/ml with anti-PDGFRα-PE (1:20) anti-KDR-APC (1:10), (R&D Systems), anti-SIRPA-PeCy (clone SE5A5, 1:1000, Biolegend), anti-CD90-APC (BD), anti-cardiac isoform of cTNT (clone 13-11; 1:2000, Thermo Fischer), rabbit anti-human NKX2-5 (1:800, Cell Signaling Technology), goat anti-mouse IgG APC (1:250, BD), goat anti-mouse IgG PE (1:200, Jackson ImmunoResearch), donkey anti-rabbit IgG A647 Life Technologies). For cell-surface markers staining was carried out in PBS containing 5% FCS. For intra-cellular staining cells were fixed for 10 min at 4° C. with 4% PFA and stained in PBS containing 5% FCS and 0.5% saponin (cTNT) or 0.3% TritonX (NKX2-5). Stained cells were analyzed using the LSR II Flow cytometer (BD). For cell sorting the cells were kept in IMDM containing 5% FCS and sorted at a concentration of 10^6 cell/ml using MoFlo (BD) and Influx (BD) sorter. […] Data were analyzed using FlowJo software (Tree Star). […]

[3] = system: HES3 NKX2-5:GFP reporter line; assay: Flow cytometry of day 20 differentiation cultures for NKX2-5 and cTNT
Procedure: Human pluripotent stem cell lines (Hes3 NKX2-5:GFP)^10 H7 (HESC line approved by NIH registration number 0061^32 and MSC-IPS1^11 were cultured as described^12. For differentiation into the cardiac lineage the established protocol was used with the following modifications (FIG. 1A). 80% confluent hPSCs cultures were dissociated into single cells, suspended in StemPro-34 Media containing 1 ng/ml BMP4 and 10 μM ROCK inhibitor and incubated for 18 h on an orbital shaker to generate embryoid bodies (EBs). The next day (day 1 of differentiation) the EBs were transferred to mesoderm induction media: StemPro-34 containing 10 ng/ml BMP4, 6 ng/ml ActivinA, 5 ng/ml bFGF. At day 3 of differentiation the EBs were washed once using IMDM and suspended in cardiac induction media: StemPro-34 containing 0.5 μM IWP2, 10 ng/ml VEGF, and optionally 5.4 μM SB-431542 (SB, Activin/Nodal/TGFβ inhibitor). At day 5 of differentiation EBs were switched to basic media: Stempro containing 5 ng/ml VEGF. Media was supplemented with VEGF until day 12 of differentiation and changed every 4 days. All cytokines were purchased from R&D systems if not indicated otherwise. EBs were cultured under low oxygen conditions 5% CO2, 5% O2, 90% N2 until day 12 and at 5% CO2, normal air conditions for the rest of the culture period.
EBs were dissociated into single cells at the mesoderm stage (day 3 of differentiation) using TrypLE (Life Technologies) with the rational to ensure efficient cytokine supply to each cell. Cells were placed into 96 well low cluster plates at 80,000 cells/well with the indicated cytokines and 5 μM ROCK inhibitor for re-aggregation into EBs (FIG. 2A). At day 5 of differentiation EBs were transferred to 24 well low cluster plates and continued to be cultured in basic media as described above.
For efficient specification of SANLCM pacemaker, mesoderm was induced with the 3B/2A condition (3 ng/ml BMP4, 2 ng/ml ACTA) at day 1 of differentiation. At day 3 EBs were dissociated as described above and treated with 2.5 ng/ml BMP4 and 0.5 μM RA in addition to standard cardiac induction media.
For the generation of SANLCM cultures free of NKX2-5′ cardiomyocytes mesoderm was induced with the 3B/2A condition (3 ng/ml BMP4, 2 ng/ml ACTA) at day 1 of differentiation. For this protocol EBs were kept intact and treated at day 3 with 2.5 ng/ml BMP4, 0.5 μM RA and 960 nM FGF inhibitor (PD 173074, Tocris) at day 3 or day 4 in addition to standard cardiac induction media.
For the dissociation of day 3-day 12 EBs TrypLE was used. Day 12-30 EBs were incubated in HANKs buffer containing 1 mg/ml Collagenes type 2 (Worthington) with gentle shaking over night at room temperature, prior to TypLE dissociation. Cells were stained at a concentration of 5×10^6 cells/ml with anti-PDGFRα-PE (1:20) anti-KDR-APC (1:10), (R&D Systems), anti-SIRPA-PeCy (clone SE5A5, 1:1000, Biolegend), anti-CD90-APC (BD), anti-cardiac isoform of cTNT (clone 13-11; 1:2000, Thermo Fischer), rabbit anti-human NKX2-5 (1:800, Cell Signaling Technology), goat anti-mouse IgG APC (1:250, BD), goat anti-mouse IgG PE (1:200, Jackson ImmunoResearch), donkey anti-rabbit IgG A647 Life Technologies). For cell-surface markers staining was carried out in PBS containing 5% FCS. For intra-cellular staining cells were fixed for 10 min at 4° C. with 4% PFA and stained in PBS containing 5% FCS and 0.5% saponin (cTNT) or 0.3% TritonX (NKX2-5). Stained cells were analyzed using the LSR II Flow cytometer (BD). For cell sorting the cells were kept in IMDM containing 5% FCS and sorted at a concentration of 10^6 cell/ml using MoFlo (BD) and Influx (BD) sorter. For sorting of PFA-fixed cells for subsequent RNA isolation the staining buffers and PBS for cell collection were supplemented with 5 mM DTT and 100 U/ml RNaseOUT (Life Technologies). All buffer components were RNAse free and samples were strictly kept on ice and sorted within 3 h from PFA-fixation. Data were analyzed using FlowJo software (Tree Star).

TBX18 = assay: Quantification of TBX18+ cells from immunostaining; settings: BMP4 2.5 ng/ml day 3-5
Procedure: Cells were fixed with 4% PFA for 10 min at 4° C. and permeabilized using 0.3% Triton X, 200 mM Glycerin for 20 min at RT. Samples were blocked for 30 min at room temperature in blocking buffer (BB): 10% donkey serum, 2% BSA, 0.1% Triton X. The following primary antibodies were incubated in BB over night at 4° C.: anti-cardiac isoform of cTNT (clone 13-11; 1:100, Thermo Fischer), rabbit anti-human MLC2v (1:100), rabbit anti-human SHOX2 (1:200), (Abcam), rabbit anti-human TBX3 (1:100), goat anti-human Tbx18 (1:50), (Santa Cruz). Respective secondary antibodies were incubated for 30 min at RT: donkey anti-mouse IgG A647 (1:400), donkey anti-rabbit IgG A467 (1:400), (Life Technologies), goat anti-mouse IgG Cy3 (1:400), donkey anti-rabbit IgG Cy3 (1:800), donkey anti-goat IgG Cy3 (1:800), (Jackson ImmunoResearch). DAPI was used to counterstain cell nuclei and slides were mounted using Fluorescent Mounting Medium (Dako). The Olympus FluoView 1000 Laser Scanning Confocal Microscope and the FV10-ASW software were used for imaging.
For the quantification of DAPI and TBX18 positive cell nuclei the IMAGE J software plugin ICTN was used. For each condition three random taken pictures (FIG. 3F) of three independent experiments were analyzed.

[4] = system: SAN pacemaker marker, ventricular marker and cardiac ion channels; assay: Q-PCR analysis of marker gene expression; settings: BMP4 day 3-5, 2.5 ng/ml vs untreated control, day 4 to 12
Procedure: Total RNA was isolated using the RNAqueous-micro Kit (Ambion) followed by a DNase digestion step (Ambion). For RNA isolation from PFA-fixed cells the RecoverAll Kit (Ambion) was used. 500 ng to 1 μg of RNA was reverse transcribed into cDNA using random hexamers and Oligo(dT) primers with Superscript III Reverse Transcriptase (life technologies). QPCRs were performed on the EP RealPlex MasterCycler (Eppendorf) using the QuntiFast SYBR Green PCR Kit (Qiagen) according to the manufacturer's instructions. A 10-fold dilution series of human genomic DNA standards ranging from 25 ng/μl to […] was used to evaluate the efficiency of the PCR and calculate the copy number of each gene relative to the house keeping gene TBP as described previously^13. Human fetal heart tissue gestation stage 17 was purchased from Novogenix Laboratories. After dissecting ventricular, sinoatrial node and atrioventricular node tissue RNA was isolated using the Trizol method (Life Technologies) and treated with DNase (Ambion).

For `[Cs]` [Cesium], the “effect on pacemaker funny current traces” value [1] was “blocked”.
For `CCN(CC)CCCCNc1ncc2cc(-c3cc(OC)cc(OC)c3)c(NC(=O)NC(C)(C)C)nc2n1` [PD 173074], the “NKX2-5+ myocytes in day 20 cultures” value ([2]; 240 nM FGFi day 3-5, vs 43% at endogenous bFGF levels) was 5%, the “NKX2-5-cTNT+ SANLCMs in day 20 cultures” value ([2]; BMP 2.5 ng/ml, RA 0.5 μM, 240 nM FGFi day 3-5) was “up to 36%” and the “NKX2-5+ cardiomyocytes in day 20 cultures” value ([3]; BMP+RA plus FGF inhibitor 240-960 nM) was 51%. The “NKX2-5-cTNT+ SANLCM in day 20 cultures” value ([3]; BMP+RA plus FGF inhibitor from day 4-6 (480 nM)) was 48±3% and the “block in development of NKX2-5+ cardiomyocytes” value ([3]; FGF inhibitor applied from day 5 onwards) was “no effect”.
`CC1=C(/C=C/C(C)=C/C=C/C(C)=C/C(=O)O)C(C)(C)CCC1` [RA, retinoic acid] was tested, and the “generation of total cardiomyocytes and SANLCM frequency” value ([3]; RA 500 nM added at later times (days 3 to 12)) was “no effect”.
BMP4: Bone Morphogenetic Protein 4 was tested, and the “number of TBX18+ cells at day 6” value (TBX18) was 38±2%, the TBX18 expression [4] was “significantly up-regulated” and the “proportion of SANLCMs” value ([3]; BMP4 1.25-5 ng/ml day 3-5, mesoderm induced with 3B/2A) was 35±1%. For the same compound, the “proportion of SANLCMs” value ([3]; BMP4 1.25-5 ng/ml day 3-5, mesoderm induced with 5B/4A) was 21±1%, the “proportion of SANLCMs” value ([3]; BMP4 1.25-5 ng/ml day 3-5, mesoderm induced with 10B/6A) was 15±2% and the total cardiomyocytes ([3]; high levels of BMP4 (10-20 ng/ml) between day 3-5) was “significant reduction”.
With bFGF: fibroblast growth factor FGF2 the “NKX2-5-cTNT+ SANLCM population in day 20 cultures” value ([3]; BMP+RA plus bFGF (20 ng/ml, day 4-6)) was 12±1%.
